Earlier results as cited in patent publication US20160081915A1, “TRANSDERMAL FORMULATIONS OF FLUTICASONE” (STRATEGIC SCIENCE & TECHNOLOGIES, LLC, priority 2013, published 2016).

Details: oral; extensive first-pass metabolism in the liver

half-life when delivered orally: about 7.8 hours
SMILES: C[C@@H]1C[C@H]2[C@@H]3C[C@H](F)C4=CC(=O)C=C[C@]4(C)[C@@]3(F)[C@@H](O)C[C@]2(C)[C@@]1(O)C(=O)SCF [fluticasone]
